In ChEMBL document CHEMBL5137017, “Identification of NVP-CLR457 as an Orally Bioavailable Non-CNS-Penetrant pan-Class IA Phosphoinositol-3-Kinase Inhibitor” (J Med Chem, 2022):
Values after ≈ are worked out from the molar mass of the structure shown. Active and inactive are the calls of the source. The calls are words filed in the database; no cut-off is given here.

Legend:
[1] = Dose normalized AUC in beagle dog at 0.3 mg/kg, po measured upto 24 hrs by LC-MS/MS analysis; format: ADME, organism-based, Canis lupus familiaris; settings: in vivo
Rat1 [2] = test: Antitumor activity at rat Rat1 cells expressing myr-p110alpha xenografted in athymic nude mouse assessed as T/C ratio at 20 mg/kg, po bid measured after 15 to 24 days; format: functional; settings: time 15-24 day
[3] = AUC(0 to Tlast) in athymic nude mouse xenografted with rat Rat1 cells expressing myr-p110alpha at 3 mg/kg, po measured after 8 days by LC-MS/MS analysis; format: ADME, organism-based; set-up: time 8 day, dose 3 mg/kg, route po; settings: in vivo
Tubulin (Sus scrofa) = Tubulin (Sus scrofa) (UniProt P02554+P02550); test: Inhibition of porcine tubulin polymerization assessed as inhibition of microtubule polymerization at 15 to 30 uM measured after 1 hr; format: protein assay; settings: dose 15-30 µM
Chain of Tubulin (Sus scrofa) (P02550 whole entry, looked up): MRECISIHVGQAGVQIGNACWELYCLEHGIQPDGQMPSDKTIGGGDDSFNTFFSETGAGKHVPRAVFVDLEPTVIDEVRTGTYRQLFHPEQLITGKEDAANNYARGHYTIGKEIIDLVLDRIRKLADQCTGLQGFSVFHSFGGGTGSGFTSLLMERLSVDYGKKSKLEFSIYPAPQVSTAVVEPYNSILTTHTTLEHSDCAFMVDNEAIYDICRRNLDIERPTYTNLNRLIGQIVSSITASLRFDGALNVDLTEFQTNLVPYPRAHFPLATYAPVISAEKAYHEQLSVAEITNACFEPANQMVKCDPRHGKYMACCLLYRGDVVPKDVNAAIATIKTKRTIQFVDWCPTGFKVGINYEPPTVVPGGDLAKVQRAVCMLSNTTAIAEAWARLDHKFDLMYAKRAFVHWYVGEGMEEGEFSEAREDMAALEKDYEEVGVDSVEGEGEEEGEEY
Chain of Tubulin (Sus scrofa) (P02554 whole entry, looked up): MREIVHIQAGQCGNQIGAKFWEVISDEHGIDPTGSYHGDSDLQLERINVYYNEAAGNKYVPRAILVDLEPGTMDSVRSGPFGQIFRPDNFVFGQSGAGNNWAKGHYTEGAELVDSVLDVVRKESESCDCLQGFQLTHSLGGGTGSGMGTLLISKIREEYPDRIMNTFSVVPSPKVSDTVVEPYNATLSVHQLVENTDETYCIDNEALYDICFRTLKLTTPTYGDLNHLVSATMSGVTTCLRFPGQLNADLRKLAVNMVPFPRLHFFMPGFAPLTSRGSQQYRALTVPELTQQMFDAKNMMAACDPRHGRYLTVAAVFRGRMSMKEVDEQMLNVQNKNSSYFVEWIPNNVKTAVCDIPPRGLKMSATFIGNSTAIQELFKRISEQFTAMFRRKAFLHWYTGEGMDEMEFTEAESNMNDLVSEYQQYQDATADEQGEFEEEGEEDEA

[4] = Inhibition of wild type PI3K in human Hs-578T cells assessed as reduction in phosphorylation of AKT at Ser473 residue by Western blot analysis; format: cell-based
[5] = Brain to blood ratio in OF1 mouse at 1 mg/kg, iv measured at 5 mins post dose by LC-MS/MS analysis; format: ADME, organism-based; settings: brain and blood, read-out: BBR
[6] = Dose normalized AUC in Sprague-Dawley rat at 30 mg/kg, po measured upto 24 hrs by LC-MS/MS analysis; format: ADME, organism-based; settings: in vivo
[7] = Effect on blood glucose level in athymic nude mouse xenografted with rat Rat1 cells expressing myr-p110alpha assessed as fold increase at 40 mg/kg, po bid measured for 2 to 10 hrs by glucometer analysis; format: toxicity, organism-based; settings: in vivo, time 2-10 hrs
[8] = 1-octanol, logP of the compound at pH 7.4; format: physicochemical
[9] = Oral bioavailability in Sprague-Dawley rat at 20 mg/kg using crystalline form of sample; format: ADME, organism-based; settings: in vivo
Rat1 [10] = test: Antitumor activity at rat Rat1 cells expressing myr-p110alpha xenografted in athymic nude mouse assessed as T/C ratio at 3 mg/kg, po qd measured after 14 to 22 days; format: functional; settings: time 14-22 day
[11] = Tlast in athymic nude mouse xenografted with rat Rat1 cells expressing myr-p110alpha at 10 mg/kg, po measured after 8 days by LC-MS/MS analysis; format: ADME, organism-based; settings: in vivo, 192 h, time 8 day
[12] = Dose normalized AUC in Sprague-Dawley rat at 100 mg/kg, po measured upto 24 hrs by LC-MS/MS analysis; format: ADME, organism-based; settings: in vivo
[13] = biological target: Serine/threonine-protein kinase mTOR (Mus musculus, UniProt Q9JLN9); test: Inhibition of mTOR in Tscl-/- null mouse MEF assessed as reduction on RPS6 phosphorylation at Ser235/236 residue by alpha-screen assay; format: cell-based
[14] = In vivo Inhibition of AKT phosphorylation at Ser473 residue in plasma of athymic nude mouse xenografted with rat Rat1 cells expressing myr-p110alpha; format: functional, organism-based
[15] = Half life in Sprague-Dawley rat at 3 mg/kg, po or iv measured upto 24 hrs by LC-MS/MS analysis; format: ADME, organism-based; settings: in vivo
[16] = Half life in OF1 mouse at 10 mg/kg,po or 3 mg/kg,iv measured upto 24 hrs by LC-MS/MS analysis; format: ADME, organism-based; settings: in vivo
[17] = Oral bioavailability in Sprague-Dawley rat at 21.5 mg/kg using hydroxypropyl methylcellulose amorphous solid dispersion form of sample; format: ADME, organism-based; settings: in vivo
[18] = Aqueous solubility of compound in buffer at pH 7.4 by HPLC analysis; format: physicochemical
[19] = biological target: T1, Phosphatidylinositol 4,5-bisphosphate 3-kinase catalytic subunit delta isoform (Homo sapiens, UniProt O00329); test: Inhibition of PI3Kdelta (unknown origin) using phosphatidylinositol as substrate measured for 15 to 60 mins by TR-FRET based Adapta universal kinase assay
T1 sequence (O00329 whole entry): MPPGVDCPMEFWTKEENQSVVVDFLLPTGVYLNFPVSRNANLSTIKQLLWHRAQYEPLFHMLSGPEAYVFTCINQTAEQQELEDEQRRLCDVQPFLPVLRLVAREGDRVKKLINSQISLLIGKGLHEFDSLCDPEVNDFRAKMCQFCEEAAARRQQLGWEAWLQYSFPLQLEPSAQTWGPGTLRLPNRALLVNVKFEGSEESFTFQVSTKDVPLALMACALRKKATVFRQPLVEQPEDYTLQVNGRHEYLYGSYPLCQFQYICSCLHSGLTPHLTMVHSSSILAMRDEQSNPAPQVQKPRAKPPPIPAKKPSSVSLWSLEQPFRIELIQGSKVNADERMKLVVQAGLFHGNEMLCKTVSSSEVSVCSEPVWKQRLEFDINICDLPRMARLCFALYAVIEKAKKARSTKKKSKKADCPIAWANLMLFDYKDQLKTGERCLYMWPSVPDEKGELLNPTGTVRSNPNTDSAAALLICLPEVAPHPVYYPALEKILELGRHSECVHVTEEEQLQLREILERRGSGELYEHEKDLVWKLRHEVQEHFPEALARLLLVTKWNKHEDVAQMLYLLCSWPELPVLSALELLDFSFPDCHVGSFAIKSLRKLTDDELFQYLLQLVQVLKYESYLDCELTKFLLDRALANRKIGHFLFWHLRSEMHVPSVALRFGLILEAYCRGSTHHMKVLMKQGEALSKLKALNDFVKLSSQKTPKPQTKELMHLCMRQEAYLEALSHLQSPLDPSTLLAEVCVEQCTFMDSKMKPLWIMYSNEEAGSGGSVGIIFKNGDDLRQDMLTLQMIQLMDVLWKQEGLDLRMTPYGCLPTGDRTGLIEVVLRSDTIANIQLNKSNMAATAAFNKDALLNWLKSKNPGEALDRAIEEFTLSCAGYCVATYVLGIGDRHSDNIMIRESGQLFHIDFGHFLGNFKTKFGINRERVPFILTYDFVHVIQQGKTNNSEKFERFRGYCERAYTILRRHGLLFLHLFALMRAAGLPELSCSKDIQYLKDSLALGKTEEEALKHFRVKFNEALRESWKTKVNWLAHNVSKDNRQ

[20] = Tmax in OF1 mouse at 10 mg/kg,po or 3 mg/kg,iv measured upto 24 hrs by LC-MS/MS analysis; format: ADME, organism-based; settings: in vivo
[21] = Stability in mouse liver microsomes assessed as hepatic extraction preincubated for 3 mins followed by NADPH addition and measured after 60 mins; format: ADME, Microsome; settings: time 63 min, read-out: ERH
[22] = biological target: Phosphatidylinositol 4,5-bisphosphate 3-kinase catalytic subunit beta isoform (Homo sapiens, UniProt P42338); test: Inhibition of PI3Kbeta (unknown origin) using L-alpha-phosphatidylinositol as substrate in presence of ATP by Kinase Glo luminescence assay
Chain of Phosphatidylinositol 4,5-bisphosphate 3-kinase catalytic subunit beta isoform (P42338 whole entry, canonical isoform): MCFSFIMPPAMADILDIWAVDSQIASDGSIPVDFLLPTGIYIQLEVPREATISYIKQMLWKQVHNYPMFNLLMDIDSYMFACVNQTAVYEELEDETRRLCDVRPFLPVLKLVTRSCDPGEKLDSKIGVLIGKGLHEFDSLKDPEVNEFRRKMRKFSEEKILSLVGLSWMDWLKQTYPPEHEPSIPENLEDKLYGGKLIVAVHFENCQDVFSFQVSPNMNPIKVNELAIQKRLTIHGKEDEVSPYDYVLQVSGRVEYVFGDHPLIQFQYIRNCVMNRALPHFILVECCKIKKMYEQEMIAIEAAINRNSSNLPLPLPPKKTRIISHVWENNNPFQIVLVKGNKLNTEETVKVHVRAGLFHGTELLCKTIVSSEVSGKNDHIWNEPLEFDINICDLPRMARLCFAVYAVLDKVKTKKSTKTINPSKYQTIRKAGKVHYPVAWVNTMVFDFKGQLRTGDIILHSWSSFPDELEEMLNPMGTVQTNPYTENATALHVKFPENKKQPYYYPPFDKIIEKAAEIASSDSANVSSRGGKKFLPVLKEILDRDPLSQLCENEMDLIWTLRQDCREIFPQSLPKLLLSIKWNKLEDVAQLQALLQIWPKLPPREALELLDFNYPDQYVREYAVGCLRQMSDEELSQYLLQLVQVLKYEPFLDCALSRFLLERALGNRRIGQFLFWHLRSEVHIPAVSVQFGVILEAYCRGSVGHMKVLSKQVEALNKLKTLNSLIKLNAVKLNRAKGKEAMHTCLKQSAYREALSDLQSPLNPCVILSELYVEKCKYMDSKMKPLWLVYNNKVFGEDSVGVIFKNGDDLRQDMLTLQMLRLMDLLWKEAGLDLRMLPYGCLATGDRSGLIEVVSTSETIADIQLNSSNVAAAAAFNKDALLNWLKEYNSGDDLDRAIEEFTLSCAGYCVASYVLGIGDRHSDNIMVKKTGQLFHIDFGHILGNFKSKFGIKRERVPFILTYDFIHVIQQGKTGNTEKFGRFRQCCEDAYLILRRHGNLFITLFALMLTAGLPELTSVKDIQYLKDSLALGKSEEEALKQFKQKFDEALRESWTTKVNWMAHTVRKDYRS

[23] = Cmax in beagle dog at 0.3 mg/kg,po or 0.1 mg/kg,iv measured upto 24 hrs by LC-MS/MS analysis; format: ADME, organism-based, Canis lupus familiaris; set-up: dose 0.3 mg/kg, time < 24 hrs, route po; settings: in vivo
[24] = Tmax in Sprague-Dawley rat at 30 mg/kg, po measured upto 24 hrs by LC-MS/MS analysis; format: ADME, organism-based; settings: in vivo
[25] = Tlast in athymic nude mouse xenografted with rat Rat1 cells expressing myr-p110alpha at 40 mg/kg, po measured after 8 days by LC-MS/MS analysis; format: ADME, organism-based; settings: in vivo, 192 h, time 8 day
[26] = Tmax in beagle dog at 3 mg/kg, po measured upto 24 hrs by LC-MS/MS analysis; format: ADME, organism-based, Canis lupus familiaris; settings: in vivo

AUC/dose [1]: 12970 nM·h
AUC(0-t) at 192 h [3]: 5.5 µM·h
inhibition (Tubulin (Sus scrofa)): Active
IC50 [4]: 0.027 µM
Kp at 5 min [5]: 0.02
AUC/dose [6]: 913 nM·h
logD [8]: 2
bioavailability [9]: 20%
Tlast [11]: 14 h
AUC/dose [12]: 784 nM·h
IC50 [13]: 1.63 µM
IC50 ([14]; Mus musculus): 0.2 µM
half-life [15]: 3.3 h
half-life [16]: 2 h
bioavailability [17]: 100%
solubility [18]: 26 µM (≈ 11.8 µg/mL)
IC50 [19]: 0.0083 µM
Tmax [20]: 0.5 h
hepatic extraction ratio at 1 h [21]: 0.34
IC50 [22]: 0.0083 µM
Cmax [23]: 1.12 µM
Tmax [24]: 4 h
Tlast [25]: 24 h
Tmax [26]: 2 h
SMILES: C[C@H]1OC(=O)N(c2nc(-c3cnc(N)nc3C(F)(F)F)cc(N3CCOCC3)n2)[C@H]1CO
T/C (Rat1 [2]): -0.8
fold change (FC) [7]: 2
T/C (Rat1 [10]): 0.43
IC80 [14]: 0.8 µM
